# Test results taken from patent US11986532B2 (Arvinas Operations, Inc., priority 2021, dated 2024).
# Read-outs that look alike come from different tables or passages of the source.
# Target: T1, BCL6 (Homo sapiens, UniProt P41182)
# T1 construct: endogenous in cells; host or cells: T47D breast cancer epithelial cells
# Experiment: Immunofluorescence protocol for high content imaging of BCL6 (degradation) in T47D cells, 3 days compound treatment
# Type: cell-based
# Details: for DC50: read-out: Mean DC50 (nM)* category; for Dmax: read-out: Mean Dmax (%)** category
# How it was run: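 Cells are seeded to reach ~70-90% confluence at endpoint, then dosed next day with compound at a final top concentration of 0.1 or 1 μM (11 points, 3-fold). After 3 days, BCL6 is detected by immunofluorescence and quantified by high-content imaging.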
# [1] = T47D cells, 3 days compound treatment
DC50 [1] [nM],Dmax [1] [%],SMILES,Dmax (T47D) [%],DC50 [nM]
< 10,< 50,"CNC(=O)COc1cc2cc(Nc3nc(N4CCN(C(C)(C)C5CCC6(CCN(c7ccc8c(c7)CN(C7CCC(=O)NC7=O)C8=O)C6)C5)CC4)ncc3Cl)ccc2n(C(C)C)c1=O (centres unmarked) [Compound 74, 2-{[6-({5-chloro-2-[4-(2-{2-[2-(2,6-dioxopiperidin-3-yl)-1-oxo-2,3-dihydro-1H-isoindol-5-yl]-2-azaspiro[4.4]nonan-7-yl}propan-2-yl)piperazin-1-yl]pyrimidin-4-yl}amino)-2-oxo-1-(propan-2-yl)-1,2-dihydroquinolin-3-yl]oxy}-N-methylacetamide]",,
< 10,≥ 70,"CNC(=O)COc1cc2cc(Nc3nc(N4CCC(F)(CN5CCC6(CC5)CCN(c5cccc7c5CN(C5CCC(=O)NC5=O)C7=O)CC6)CC4)ncc3Cl)ccc2n(C(C)C)c1=O (centres unmarked) [Compound 82, 2-{[6-({5-chloro-2-[4-({9-[2-(2,6-dioxopiperidin-3-yl)-1-oxo-2,3-dihydro-1H-isoindol-4-yl]-3,9-diazaspiro[5.5]undecan-3-yl}methyl)-4-fluoropiperidin-1-yl]pyrimidin-4-yl}amino)-2-oxo-1-(propan-2-yl)-1,2-dihydroquinolin-3-yl]oxy}-N-methylacetamide]",,
10 to 50,≥ 70,CNC(=O)COc1cc2cc(Nc3nc(N4CCC5(CCN(CC6CCN(c7cccc8c7C(=O)N(C7CCC(=O)NC7=O)C8=O)CC6)C5)C4)ncc3Cl)ccc2n(C(C)C)c1=O (centres unmarked) [Compound 11],,
< 10,50 to 70,"CNC(=O)COc1cc2cc(Nc3nc(N4CCC(CN5CCC6(CN(c7ccc8c(c7)CN(C7CCC(=O)NC7=O)C8=O)C6)C(F)(F)C5)CC4)ncc3Cl)ccc2n(C(C)C)c1=O (centres unmarked) [Compound 90, 2-{[6-({5-chloro-2-[4-({2-[2-(2,6-dioxopiperidin-3-yl)-1-oxo-2,3-dihydro-1H-isoindol-5-yl]-5,5-difluoro-2,7-diazaspiro[3.5]nonan-7-yl}methyl)piperidin-1-yl]pyrimidin-4-yl}amino)-2-oxo-1-(propan-2-yl)-1,2-dihydroquinolin-3-yl]oxy}-N-methylacetamide]",,
< 10,≥ 70,"CNC(=O)COc1cc2c(F)c(Nc3nc(N4CCC(CN5CCC6(CC5)CN(c5ccc7c(c5)CN(C5CCC(=O)NC5=O)C7=O)C6)CC4)ncc3Cl)ccc2n(C(C)C)c1=O (centres unmarked) [Compound 161, 2-{[6-({5-chloro-2-[4-({2-[2-(2,6-dioxopiperidin-3-yl)-1-oxo-2,3-dihydro-1H-isoindol-5-yl]-2,7-diazaspiro[3.5]nonan-7-yl}methyl)piperidin-1-yl]pyrimidin-4-yl}amino)-5-fluoro-2-oxo-1-(propan-2-yl)-1,2-dihydroquinolin-3-yl]oxy}-N-methylacetamide]",,
10 to 50,50 to 70,"CNC(=O)COc1cc2cc(Nc3nc(N4CCC(OC5CCC6(CC5)CN(c5cccc7c5C(=O)N(C5CCC(=O)NC5=O)C7)C6)CC4)ncc3Cl)ccc2n(C(C)C)c1=O (centres unmarked) [Compound 70, 2-{[6-({5-chloro-2-[4-({2-[2-(2,6-dioxopiperidin-3-yl)-3-oxo-2,3-dihydro-1H-isoindol-4-yl]-2-azaspiro[3.5]nonan-7-yl}oxy)piperidin-1-yl]pyrimidin-4-yl}amino)-2-oxo-1-(propan-2-yl)-1,2-dihydroquinolin-3-yl]oxy}-N-methylacetamide]",,
< 10,50 to 70,"CNC(=O)COc1cc2cc(Nc3nc(N4CCC(CN5CC6(CCN(c7cc(F)c8c(c7)CN(C7CCC(=O)NC7=O)C8=O)CC6)C5)CC4)ncc3Cl)ccc2n(C(C)C)c1=O (centres unmarked) [Compound 86, 2-{[6-({5-chloro-2-[4-({7-[2-(2,6-dioxopiperidin-3-yl)-7-fluoro-1-oxo-2,3-dihydro-1H-isoindol-5-yl]-2,7-diazaspiro[3.5]nonan-2-yl}methyl)piperidin-1-yl]pyrimidin-4-yl}amino)-2-oxo-1-(propan-2-yl)-1,2-dihydroquinolin-3-yl]oxy}-N-methylacetamide]",,
,,"CNC(=O)COc1cc2cc(Nc3nc(N4CCC(O[C@H]5C[C@H](N6CCC(c7cc8c(cc7OC)C(=O)N(C7CCC(=O)NC7=O)C8)CC6)C5)CC4)ncc3Cl)ccc2n(C(C)C)c1=O (some centres unmarked) [Compound 348, 2-({6-[(5-chloro-2-{4-[(1r,3r)-3-{4-[2-(2,6-dioxopiperidin-3-yl)-6-methoxy-1-oxo-2,3-dihydro-1H-isoindol-5-yl]piperidin-1-yl}cyclobutoxy]piperidin-1-yl}pyrimidin-4-yl)amino]-2-oxo-1-(propan-2-yl)-1,2-dihydroquinolin-3-yl}oxy)-N-methylacetamide]",≥ 70,< 10
,,"CNC(=O)COc1cc2cc(Nc3nc(N4CCC(CN5CC(N6CCC(c7ccc8c(c7)CN(C7CCC(=O)NC7=O)C8=O)C(F)C6)C5)CC4)ncc3Cl)ccc2n(C(C)C)c1=O (centres unmarked) [Compound 217, 2-({6-[(5-chloro-2-{4-[(3-{4-[2-(2,6-dioxopiperidin-3-yl)-1-oxo-2,3-dihydro-1H-isoindol-5-yl]-3-fluoropiperidin-1-yl}azetidin-1-yl)methyl]piperidin-1-yl}pyrimidin-4-yl)amino]-2-oxo-1-(propan-2-yl)-1,2-dihydroquinolin-3-yl}oxy)-N-methylacetamide]",50 to 70,< 10
,,"CNC(=O)COc1cc2cc(Nc3nc(N4CCC(O[C@H]5C[C@H](N6CC[C@@H](c7ccc8c(c7F)CN([C@H]7CCC(=O)NC7=O)C8=O)C[C@H]6C)C5)CC4)ncc3Cl)ccc2n(C(C)C)c1=O [Compound 294, 2-({6-[(5-chloro-2-{4-[(1r,3r)-3-[(2R,4R)-4-{2-[(3S)-2,6-dioxopiperidin-3-yl]-4-fluoro-1-oxo-2,3-dihydro-1H-isoindol-5-yl}-2-methylpiperidin-1-yl]cyclobutoxy]piperidin-1-yl}pyrimidin-4-yl)amino]-2-oxo-1-(propan-2-yl)-1,2-dihydroquinolin-3-yl}oxy)-N-methylacetamide]",≥ 70,< 10
,,"CNC(=O)COc1cc2cc(Nc3nc(N4CCC(O[C@H]5C[C@H](N6CCC7(CN(c8ccc9c(c8)C(=O)N(C8CCC(=O)NC8=O)C9)C7)C6)C5)CC4)ncc3Cl)ccc2n(C(C)C)c1=O (some centres unmarked) [Compound 345, 2-({6-[(5-chloro-2-{4-[(1r,3r)-3-{2-[2-(2,6-dioxopiperidin-3-yl)-3-oxo-2,3-dihydro-1H-isoindol-5-yl]-2,6-diazaspiro [3.4]octan-6-yl}cyclobutoxy]piperidin-1-yl}pyrimidin-4-yl)amino]-2-oxo-1-(propan-2-yl)-1,2-dihydroquinolin-3-yl}oxy)-N-methylacetamide]",≥ 70,< 10
,,"CNC(=O)COc1cc2cc(Nc3nc(N4CCN(CC5CCC6(CC5)CN(c5cc7c(cc5F)C(=O)N(C5CCC(=O)NC5=O)C7)C6)CC4)ncc3Cl)ccc2n(C(C)C)c1=O (centres unmarked) [Compound 306, 2-{[6-({5-chloro-2-[4-({2-[2-(2,6-dioxopiperidin-3-yl)-6-fluoro-1-oxo-2,3-dihydro-1H-isoindol-5-yl]-2-azaspiro[3.5]nonan-7-yl}methyl)piperazin-1-yl]pyrimidin-4-yl}amino)-2-oxo-1-(propan-2-yl)-1,2-dihydroquinolin-3-yl]oxy}-N-methylacetamide]",50 to 70,< 10
< 10,< 50,"CNC(=O)COc1cc2cc(Nc3nc(N4CCC(OC5CCC6(CCN(c7ccc8c(c7)CN(C7CCC(=O)NC7=O)C8=O)C6)C5)CC4)ncc3Cl)ccc2n(C(C)C)c1=O (centres unmarked) [Compound 98, 2-{[6-({5-chloro-2-[4-({2-[2-(2,6-dioxopiperidin-3-yl)-1-oxo-2,3-dihydro-1H-isoindol-5-yl]-2-azaspiro[4.4]nonan-7-yl}oxy)piperidin-1-yl]pyrimidin-4-yl}amino)-2-oxo-1-(propan-2-yl)-1,2-dihydroquinolin-3-yl]oxy}-N-methylacetamide]",,

SMILES,DC50 [1] [nM],Dmax [1] [%],Dmax (T47D) [%],DC50 [nM]
"CNC(=O)COc1cc2cc(Nc3nc(N4CCC(O[C@H]5C[C@H](N6C[C@@H](C)N(c7ccc8c(c7C)C(=O)N(C7CCC(=O)NC7=O)C8=O)C[C@@H]6C)C5)CC4)ncc3Cl)ccc2n(C(C)C)c1=O (stereo partly drawn) [Compound 207, 2-({6-[(5-chloro-2-{4-[(1r,3r)-3-[(2S,5R)-4-[2-(2,6-dioxopiperidin-3-yl)-4-methyl-1,3-dioxo-2,3-dihydro-1H-isoindol-5-yl]-2,5-dimethylpiperazin-1-yl]cyclobutoxy]piperidin-1-yl}pyrimidin-4-yl)amino]-2-oxo-1-(propan-2-yl)-1,2-dihydroquinolin-3-yl}oxy)-N-methylacetamide]",< 10,≥ 70,,
"CCn1c(=O)c(OCC(=O)NC)cc2cc(Nc3nc(N4CCC(O[C@H]5C[C@H](N6CCC(c7ccc8c(c7)C(=O)N(C7CCC(=O)NC7=O)C8=O)CC6)C5)CC4)ncc3Cl)ccc21 (some centres unmarked) [Compound 5, 2-[[6-[[5-chloro-2-[4-[3-[4-[2-(2,6-dioxo-3-piperidyl)-1,3-dioxo-isoindolin-5-yl]-1-piperidyl]cyclobutoxy]-1-piperidyl]pyrimidin-4-yl]amino]-1-ethyl-2-oxo-3-quinolyl]oxy]-N-methyl-acetamide]",< 10,≥ 70,,
"CNC(=O)COc1cc2cc(Nc3nc(N4CCC(O[C@H]5C[C@H](N6CCN(c7ccc8c(n7)CN(C7CCC(=O)NC7=O)C8=O)CC6)C5)CC4)ncc3Cl)ccc2n(C(C)C)c1=O (some centres unmarked) [Compound 189, 2-((6-((5-chloro-2-(4-((1r,3r)-3-(4-(6-(2,6-dioxopiperidin-3-yl)-5-oxo-6,7-dihydro-5H-pyrrolo[3,4-b]pyridin-2-yl)piperazin-1-yl)cyclobutoxy)piperidin-1-yl)pyrimidin-4-yl)amino)-1-isopropyl-2-oxo-1,2-dihydroquinolin-3-yl)oxy)-N-methylacetamide]",< 10,50 to 70,,
